This assay has as its target T1, mAChR M1 (UniProt P08482).
T1 sequence (P08482 1-460): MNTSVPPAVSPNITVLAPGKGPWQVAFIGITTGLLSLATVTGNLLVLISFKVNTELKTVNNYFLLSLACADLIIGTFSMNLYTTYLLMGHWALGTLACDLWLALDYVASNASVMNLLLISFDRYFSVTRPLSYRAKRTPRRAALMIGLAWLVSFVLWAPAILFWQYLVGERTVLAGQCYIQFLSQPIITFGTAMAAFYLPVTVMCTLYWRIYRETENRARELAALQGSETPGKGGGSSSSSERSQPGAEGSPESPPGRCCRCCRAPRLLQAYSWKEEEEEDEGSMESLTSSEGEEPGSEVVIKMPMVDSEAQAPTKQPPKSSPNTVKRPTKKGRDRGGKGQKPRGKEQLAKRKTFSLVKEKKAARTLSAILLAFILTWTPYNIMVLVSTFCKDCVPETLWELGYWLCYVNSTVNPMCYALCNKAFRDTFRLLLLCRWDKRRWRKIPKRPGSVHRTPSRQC
The assay can be described thus: mAChR M1 cell-based functional assay (calcium mobilization, Fluo-4, FDSS). The conditions noted are these: for Efficacy (% ACh maximum at 30 μM): maximal calcium flux response from curve fit or response at 30 μM compound, as % of the EC80 ACh response; for EC50: positive allosteric modulation of EC20 acetylcholine response, CHO-K1 cells expressing mAChR M1, read-out: Potency (EC50). As for the experimental part:
Chinese hamster ovary (CHO-K1) cells stably expressing rat (r)M1 were purchased from the American Type Culture Collection and cultured according to their indicated protocol. […] To make stable rM2, hM2, rM3, hM4, and rM4 cell lines for use in calcium mobilization assays, these cells also were stably transfected with a chimeric G-protein (Gqi5) (provided by B. R. Conklin, University of California, San Francisco) using Lipofectamine 2000. rM1, hM1, rM3, hM3, rM5, and hM5 cells were grown in Ham's F-12 medium containing 10% heat-inactivated fetal bovine serum (FBS), 20 mM HEPES, and 50 μg/mL G418 sulfate. rM2-Gqi5, hM2-Gqi5, and hM4-Gqi5 cells were grown in the same medium also containing 500 μg/mL Hygromycin B. Stable rM4-Gqi5 cells were grown in DMEM containing 10% heat-inactivated FBS, 20 mM HEPES, 400 μg/mL G418 sulfate, and 500 μg/mL Hygromycin B.
For high throughput measurement of agonist-evoked increases in intracellular calcium, CHO-K1 cells stably expressing muscarinic receptors were plated in growth medium lacking G418 and hygromycin at 15,000 cells/20 μL/well in Greiner 384-well black-walled, tissue culture (TC)-treated, clear-bottom plates (VWR). Cells were incubated overnight at 37° C. and 5% CO2. […] Compound master plates were formatted in an 11 point CRC format (1:3 dilutions) in 100% DMSO with a starting concentration of 10 mM using the BRAVO liquid handler (Agilent). Test compound CRCs were then transferred to daughter plates (240 nL) using the Echo acoustic plate reformatter (Labcyte, Sunnyvale, Calif.) and then diluted into assay buffer (40 μL) to a 2× stock using a Thermo Fisher Combi (Thermo Fisher Scientific, Waltham, Mass.).
Calcium flux was measured using the Functional Drug Screening System (FDSS) 6000 (Hamamatsu Corporation, Tokyo, Japan) as an increase in the fluorescent static ratio. Compounds were applied to cells (20 μL, 2×) using the automated system of the FDSS 6000 at 4 s into the 300 s protocol and the data were collected at 1 Hz. […] Agonist activity was analyzed as a concentration-dependent increase in calcium mobilization upon compound addition. Positive allosteric modulator activity was analyzed as a concentration-dependent increase in the EC20 acetylcholine response. Antagonist activity was analyzed as a concentration-dependent decrease in the EC80 acetylcholine response. Concentration-response curves were generated using a four-parameter logistical equation in XLfit curve fitting software (IDBS, Bridgewater, N.J.) for Excel (Microsoft, Redmond, Wash.) or Prism (GraphPad Software, Inc., San Diego, Calif.).
The calcium mobilization assay was also used to determine “efficacy”. In the context of the assays carried out for the data in Table I, “efficacy” (% ACh at 30 μM) is defined as the maximal response in the calcium flux as determined by the sigmoidal curve fit of the concentration response curve, or in the absence of an acceptable curve fit, the response recorded at 30 μM test compound, stated as a percentage of the response elicited by a concentration of Ach that induces approximately 80% of a maximal (i.e. saturating) ACh response.
For orientation: Calcium flux is commonly read through the fluorescence of an indicator in the cells.

The values that follow come from patent US8772509B2, “Indole compounds as positive allosteric modulators of the muscarinic receptor” (Vanderbilt University, priority 2010, dated 2014).

Bounds are passed on as bounds.

As usually defined, the EC50 is the concentration needed to bring the measured effect to its halfway point. Consider `O=C(CS(=O)(=O)c1cn(Cc2cccc(Br)c2)c2cc(F)cc(F)c12)NC1COC1` [compound 34, 2-((1-(3-bromobenzyl)-4,6-difluoro-1H-indol-3-yl)sulfonyl)-N-(oxetan-3-yl)acetamide], for which the “Efficacy (% ACh maximum at 30 μM)” value is given as 43% and the EC50 is above 10 µM. On the same counts, the results for `O=C(CS(=O)(=O)c1cn(Cc2cccc(-c3cccnc3Cl)c2)c2cc(F)cc(F)c12)Nc1ccccn1` [compound 11, 2-((1-(3-(2-chloropyridin-3-yl)benzyl)-4,6-difluoro-1H-indol-3-yl)sulfonyl)-N-(pyridin-2-yl)acetamide] are 43% and 2.7 µM. On the same counts, the results for `Cc1cc(NC(=O)CS(=O)(=O)c2cn(Cc3cc(-c4cn[nH]c4)ccc3F)c3ccccc23)no1` [compound 15, 2-((1-(2-fluoro-5-(1H-pyrazol-4-yl)benzyl)-1H-indol-3-yl)sulfonyl)-N-(5-methylisoxazol-3-yl)acetamide] are 96% and 3.07 µM. Regarding `Cc1cc(NC(=O)C(Cc2cccc(Cl)c2)S(=O)(=O)c2cn(Cc3cccc(Cl)c3)c3ccccc23)no1` (centres unmarked) [compound 69, 3-(3-chlorophenyl)-2-{1-[(3-chlorophenyl)methyl]-1H-indole-3-sulfonyl}-N-(5-methyl-1,2-oxazol-3-yl)propanamide], the EC50 is above 10 µM. The same measure, in the same setting: the figure for `Cc1cc(NC(=O)CS(=O)(=O)c2cn(Cc3cccc(F)c3)c3ccccc23)no1` [compound 28, 2-((1-(3-fluorobenzyl)-1H-indol-3-yl)sulfonyl)-N-(5-methylisoxazol-3-yl)acetamide] is 5.22 µM; for `COc1ccc(Cn2cc(S(=O)(=O)CC(=O)Nc3cc(C)on3)c3ccccc32)cc1` [compound 46, 2-{1-[(4-methoxyphenyl)methyl]-1H-indole-3-sulfonyl}-N-(5-methyl-1,2-oxazol-3-yl)acetamide] it is above 10 µM. With `Cc1cc(NC(=O)CS(=O)(=O)c2cn(Cc3cccc(-c4cn[nH]c4)c3)c3ccccc23)no1` [compound 5, 2-((1-(3-(1H-pyrazol-4-yl)benzyl)-1H-indol-3-yl)sulfonyl)-N-(5-methylisoxazol-3-yl)acetamide], the “Efficacy (% ACh maximum at 30 μM)” value came out at 90% and the concentration giving a half-maximal response (EC50) amounted to 2.19 µM. On to `Cc1cc(NC(=O)CS(=O)(=O)c2cn(Cc3ccc(F)cc3F)c3ccccc23)no1` [compound 49, 2-{1-[(2,4-difluorophenyl)methyl]-1H-indole-3-sulfonyl}-N-(5-methyl-1,2-oxazol-3-yl)acetamide], for which the EC50 was above 10 µM.

On to `Cc1cc(NC(=O)CS(=O)(=O)c2cn(Cc3ccc(Cl)c(Cl)c3)c3ccccc23)no1` [compound 55, 2-{1-[(3,4-dichlorophenyl)methyl]-1H-indole-3-sulfonyl}-N-(5-methyl-1,2-oxazol-3-yl)acetamide], for which the EC50 is above 10 µM. With `Cc1cc(NC(=O)C(Cc2ccccc2F)S(=O)(=O)c2cn(Cc3ccccc3F)c3ccccc23)no1` (centres unmarked) [compound 66, 3-(2-fluorophenyl)-2-{1-[(2-fluorophenyl)methyl]-1H-indole-3-sulfonyl}-N-(5-methyl-1,2-oxazol-3-yl)propanamide], the EC50 was above 10 µM. Consider `O=C(CS(=O)(=O)c1cn(Cc2cccc(-c3cncnc3)c2)c2cc(F)cc(F)c12)Nc1ccccn1` [compound 36, 2-((4,6-difluoro-1-(3-(pyrimidin-5-yl)benzyl)-1H-indol-3-yl)sulfonyl)-N-(pyridin-2-yl)acetamide], for which the “Efficacy (% ACh maximum at 30 μM)” value is on record as 45% and the EC50 is above 10 µM. For the molecule `Cc1cc(NC(=O)CS(=O)(=O)c2cn(Cc3cccc(-c4ccc(Cl)nc4)c3)c3ccccc23)no1` [compound 64, 2-(1-{[3-(6-chloropyridin-3-yl)phenyl]methyl}-1H-indole-3-sulfonyl)-N-(5-methyl-1,2-oxazol-3-yl)acetamide], the EC50 was above 10 µM.

`O=C(CS(=O)(=O)c1cn(Cc2cccc(-c3ccc(F)nc3)c2)c2cc(F)cc(F)c12)Nc1ccccn1` [compound 27, 2-((4,6-difluoro-1-(3-(6-fluoropyridin-3-yl)benzyl)-1H-indol-3-yl)sulfonyl)-N-(pyridin-2-yl)acetamide]: the “Efficacy (% ACh maximum at 30 μM)” value is listed as 42% and the EC50 amounted to 5.2 µM. For `O=C(CS(=O)(=O)c1cn(Cc2cccc(-c3cccnc3)c2)c2cc(F)cc(F)c12)Nc1ccccn1` [compound 25, 2-((4,6-difluoro-1-(3-(pyridin-3-yl)benzyl)-1H-indol-3-yl)sulfonyl)-N-(pyridin-2-yl)acetamide], in that order: 57% and 4.6 µM.

On to `Cc1cc(NC(=O)CS(=O)(=O)c2cn(Cc3ccc(Cl)cc3)c3ccccc23)no1` [compound 48, 2-{1-[(4-chlorophenyl)methyl]-1H-indole-3-sulfonyl}-N-(5-methyl-1,2-oxazol-3-yl)acetamide], for which the EC50 was above 10 µM. On the same count and under the same terms, the figure for `Cc1cc(NC(=O)CS(=O)(=O)c2cn(Cc3cccc(-c4ccc(N5CCCC5)nc4)c3)c3ccccc23)no1` [compound 67, N-(5-methyl-1,2-oxazol-3-yl)-2-[1-({3-[6-(pyrrolidin-1-yl)pyridin-3-yl]phenyl}methyl)-1H-indole-3-sulfonyl]acetamide] is above 10 µM.

Turning to `O=C(CS(=O)(=O)c1cn(Cc2cccc(Br)c2)c2cc(F)cc(F)c12)Nc1ccccn1` [compound 6, 2-((1-(3-bromobenzyl)-4,6-difluoro-1H-indol-3-yl)sulfonyl)-N-(pyridin-2-yl)acetamide], the “Efficacy (% ACh maximum at 30 μM)” value is listed as 62% and the EC50 came out at 2.4 µM. Consider `Cc1cc(NC(=O)CS(=O)(=O)c2cn(Cc3cccc(C#N)c3)c3ccccc23)no1` [compound 45, 2-{1-[(3-cyanophenyl)methyl]-1H-indole-3-sulfonyl}-N-(5-methyl-1,2-oxazol-3-yl)acetamide], for which the EC50 is above 10 µM. The same measure, in the same setting: the figure for `O=C(CS(=O)(=O)c1cn(Cc2cc(Br)ccc2F)c2ccccc12)Nc1ccccc1` [compound 59, 2-{1-[(5-bromo-2-fluorophenyl)methyl]-1H-indole-3-sulfonyl}-N-phenylacetamide] is above 10 µM. For the molecule `O=C(CS(=O)(=O)c1cn(Cc2cccc(Br)c2)c2cc(F)cc(F)c12)Nc1nc2ccccc2o1` [compound 9, N-(benzo[d]oxazol-2-yl)-2-((1-(3-bromobenzyl)-4,6-difluoro-1H-indol-3-yl)sulfonyl)acetamide], the “Efficacy (% ACh maximum at 30 μM)” value turned out to be 44% and the EC50 was found to be 2.5 µM. With `Cc1cc(NC(=O)CS(=O)(=O)c2cn(Cc3ccc(F)nc3)c3ccccc23)no1` [compound 44, 2-{1-[(6-fluoropyridin-3-yl)methyl]-1H-indole-3-sulfonyl}-N-(5-methyl-1,2-oxazol-3-yl)acetamide], the EC50 is above 10 µM.

Regarding `Cc1cc(NC(=O)CS(=O)(=O)c2cn(Cc3cccc(-c4cccnc4)c3)c3cc(F)cc(F)c23)no1` [compound 8, 2-((4,6-difluoro-1-(3-(pyridin-3-yl)benzyl)-1H-indol-3-yl)sulfonyl)-N-(5-methylisoxazol-3-yl)acetamide], the “Efficacy (% ACh maximum at 30 μM)” value was determined as 68% and the EC50 was found to be 2.4 µM.
